Results on 23 compounds are retold here after patent publication US20200115353A1, “NEW COMPOUNDS INHIBITORS OF THE YAP/TAZ-TEAD INTERACTION AND THEIR USE IN THE TREATMENT OF MALIGNANT MESOTHELIOMA” (INVENTIVA, priority 2017, published 2020).

T1 sequence (P04386+P28347 fused, stated change not applied): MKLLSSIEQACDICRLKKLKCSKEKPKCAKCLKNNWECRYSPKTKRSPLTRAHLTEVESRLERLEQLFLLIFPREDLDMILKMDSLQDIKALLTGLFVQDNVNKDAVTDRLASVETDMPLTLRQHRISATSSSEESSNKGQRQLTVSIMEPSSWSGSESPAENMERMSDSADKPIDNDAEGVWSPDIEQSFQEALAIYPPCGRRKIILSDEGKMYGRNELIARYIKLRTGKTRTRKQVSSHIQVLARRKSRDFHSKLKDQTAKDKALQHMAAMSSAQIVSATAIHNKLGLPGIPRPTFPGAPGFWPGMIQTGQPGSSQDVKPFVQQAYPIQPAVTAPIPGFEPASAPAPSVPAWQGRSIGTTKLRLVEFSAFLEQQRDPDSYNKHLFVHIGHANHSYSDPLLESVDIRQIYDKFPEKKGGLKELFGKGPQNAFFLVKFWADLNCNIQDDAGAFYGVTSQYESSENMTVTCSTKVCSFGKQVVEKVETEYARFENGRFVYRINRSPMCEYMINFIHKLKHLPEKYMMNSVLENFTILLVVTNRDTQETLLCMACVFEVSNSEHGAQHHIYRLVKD

The first series addresses T1, YAP-TEAD interaction (full length human TEAD1-Gal4 fusion, full length YAP mutant S127A, S397A) (UniProt P04386+P28347).
T1 construct: The TEAD1 construct was prepared by cloning the full length human TEAD1 cDNA; expressed in transfected cells; host or cells: HEK293 GripTite 293 MSR (Invitrogen R795-07), transiently transfected with pSG5_CMV plasmids
The series can be described thus: Cell-based TEAD-GAL4 transactivation assay (luciferase reporter, HEK293). The settings on record: HEK293 cells, compounds 0.1 μM to 30 μM, 24 h, concentration that inhibited the luciferase activity by 50%. As to the method:
To identify inhibitors of YAP-TEAD interaction, a transient transactivation assays was carried out into HEK293 cell line (HEK293 GripTite™ 293 MSR (Invitrogen R795-07)) using plasmids containing the full length TEAD1 sequences, the full length YAP mutant (S127A, S397A) and a luciferase gene reporter. All expression constructs were performed into pSG5 backbone plasmid in which the SV40 promoter was replaced by the CMV promoter. The TEAD1 construct was prepared by cloning the full length human TEAD1 cDNA in fusion with the Gal4 DNA Binding Domain (AA 1-148) into pSG5_CMV to create the TEAD1(FL)_hum_pSG5Gal4_CMV. The full length YAP mutant (S127A, S397A) was also cloned into pSG_5 CMV to create the YAP(FL)_hum_pSG5_[…]. The reporter plasmid GAL4(5×RE)_[…]_pGL3-Basic contains 5 copies of the GAL4 responsive element (5′-TCGGAGGACAGTACTCC-3′) upstream of the thymidine kinase (TK) promoter (−105/+56) inserted in a pGL3-Basic vector. To evaluate the selectivity of our compounds in blocking the YAP-TEAD interaction, a counter-screening protein-protein interaction transactivation assays was also established. Briefly, two other expression plasmids, the pBD-P53 which express the P53 (AA 72-390) in fusion with Gal4 and the pAD-SV40T which express the SV40 large T antigen (AA 84-708,AgT), were created. HEK293 cells were seeded at 5×10^4 cells/well in 96 well plates (assay plates) in DMEM medium containing 4.5 g/L D-glucose, 10% high inactivated (HI) fetal bovine serum 1% Glutamax, 1% non-essential amino acid and 1% sodium pyruvate and 0.5% penicillin/streptomycin 37° C. in a humidified atmosphere of 8% CO2. After 24 h, transfections are performed using Jet-PEI as transfectant (101B-010 Polyplus Transfection), according to the instructions of the manufacturer (N/P=10) and a ratio YAP/TEAD=10 (per well: 50 ng of YAP(FL), 5 ng of TEAD(FL) and 50 ng of reporter plasmid). Six hours after cell transfection, the plates (‘assay plate’) were washed with 100 μl PBS per well and cell were treated with compounds in semi-log from 0.1 μM to 30 μM or DMSO 0.5% as control in DMEM 4.5 g/L D-Glucose without phenol red, 0.3% BSA, 1% glutamax, 1% NEAA, 1% sodium pyruvate. Twenty-four hours later, the luciferase activity was determined after addition of 100 μl of Steady Glo™ luciferase assay system (Promega E2550) according to the manufacturer's directions. Luciferase activity in cell extracts is measured by reading luminescence using the Envision device.
The cellular response was determined by fitting the concentration response curves using a 3-parameter curve fit equation and determining the concentration that inhibited the luciferase activity by 50%.
On the technique in general: Reporter assays use an easily measured gene product as a stand-in for the process of interest.
As to `COCCOc1ccc2c(c1)C(N(C)/N=C/c1ccc(F)c(OC)c1)=NS2(=O)=O` [Ex 56, N-[(E)-(4-fluoro-3-methoxy-phenyl)methyleneamino]-5-(2-methoxyethoxy)-N-methyl-1,1-dioxo-1,2-benzothiazol-3-amine], the half-inhibitory concentration (IC50) came to 2.31 µM.
On the same count and under the same terms, with `Cc1ncc(/C=N/N(C)C2=NS(=O)(=O)c3ccccc32)s1` [Ex 118, N-methyl-N-[(E)-(2-methylthiazol-5-yl)methyleneamino]-1,1-dioxo-1,2-benzothiazol-3-amine] the figure was 3.97 µM; with `CCCC(=O)OCn1c(=O)n(C2CCC2)c2cc(/C=N/N(C)C3=NS(=O)(=O)c4ccccc43)ccc21` [Ex 114, [3-cyclobutyl-5-[(E)-[(1,1-dioxo-1,2-benzothiazol-3-yl)-methyl-hydrazono]methyl]-2-oxo-benzimidazol-1-yl]methyl butanoate], 4.95 µM.
On the same count and under the same terms, with `CCN(/N=C/c1ccc(F)c(OC)c1)C1=NS(=O)(=O)c2cc(B(O)O)ccc21` [Ex 62, [3-[ethyl-[(E)-(4-fluoro-3-methoxy-phenyl)methyleneamino]amino]-1,1-dioxo-1,2-benzothiazol-6-yl]boronic acid] the figure was 1.98 µM.
The same measure, in the same setting: to `CCC1(CC)C(=O)Nc2ccc(/C=N/N(CC(C)C)C3=NS(=O)(=O)c4cc(OC)ccc43)cc21` [Ex 98, 3,3-diethyl-5-[(E)-[isobutyl-(6-methoxy-1,1-dioxo-1,2-benzothiazol-3-yl) hydrazono]methyl]indolin-2-one] belongs 3.92 µM.
For the compound `CCC1(CC)C(=O)Nc2ccc(/C=N/N(CC(C)C)C3=NS(=O)(=O)c4cc(OC(C)C)ccc43)cc21` [Ex 99, 3,3-diethyl-5-[(E)-[isobutyl-(6-isopropoxy-1,1-dioxo-1,2-benzothiazol-3-yl)hydrazono]methyl]indolin-2-one], the IC50 is 4.14 µM.
The compound `CC(C)CN(/N=C/c1ccc2[nH]c(=O)n(C)c2c1)C1=NS(=O)(=O)c2cc(B(O)O)ccc21` [Ex 65, [3-[isobutyl-[(E)-(3-methyl-2-oxo-1H-benzimidazol-5-yl)methyleneamino]amino]-1,1-dioxo-1,2-benzothiazol-6-yl]boronic acid] showed an IC50 of 4.04 µM.
The compound `COc1cc(/C=N/N(CC(C)C)C2=NS(=O)(=O)c3ccccc32)ccc1F` [Ex 40, N-[(E)-(4-fluoro-3-methoxy-phenyl)methyleneamino]-N-isobutyl-1,1-dioxo-1,2-benzothiazol-3-amine] yielded an IC50 of 5.33 µM.

System in another series: not given
Assay: not given
Conditions: not given
The compound `CN(/N=C/c1ccc2[nH]nnc2c1)C1=NS(=O)(=O)c2ccccc21` [Ex 35, N-[(E)-1H-benzotriazol-5-ylmethyleneamino]-N-methyl-1,1-dioxo-1,2-benzothiazol-3-amine] displayed a melting point of 313 to 315 °C.
Same read-out and setting: to `CCN(/N=C/c1ccc2c(c1)C(C)(C)NC2=O)C1=NS(=O)(=O)c2ccccc21` [Ex 85, 5-[(E)-[(1,1-dioxo-1,2-benzothiazol-3-yl)-ethyl-hydrazono]methyl]-3,3-dimethyl-isoindolin-1-one] belongs 289 to 291 °C; to `COc1cc(/C=N/N(C)C2=NS(=O)(=O)c3cc(O)ccc32)ccc1F` [Ex 51, 3-[[(E)-(4-fluoro-3-methoxy-phenyl)methyleneamino]-methyl-amino]-1,1-dioxo-1,2-benzothiazol-6-ol], 258 °C.
On the same count and under the same terms, to `CN(/N=C/c1ccc(F)c(Cl)n1)C1=NS(=O)(=O)c2ccccc21` [Ex 37, N-[(E)-(6-chloro-5-fluoro-2-pyridyl)methyleneamino]-N-methyl-1,1-dioxo-1,2-benzothiazol-3-amine] belongs 219 to 221 °C; to `CCC1(CC)C(=O)Nc2ccc(/C=N/N(C)C3=NS(=O)(=O)c4ccccc43)cc21` [Ex 34, 5-[(E)-[(1,1-dioxo-1,2-benzothiazol-3-yl)-methyl-hydrazono]methyl]-3,3-diethyl-indolin-2-one], 288 to 289 °C; to `COCCOc1ccc2c(c1)C(N(C)/N=C/c1ccc(F)c(OC)c1)=NS2(=O)=O` [Ex 56, N-[(E)-(4-fluoro-3-methoxy-phenyl)methyleneamino]-5-(2-methoxyethoxy)-N-methyl-1,1-dioxo-1,2-benzothiazol-3-amine], 200 °C.
`Cc1ncc(/C=N/N(C)C2=NS(=O)(=O)c3ccccc32)s1` [Ex 118, N-methyl-N-[(E)-(2-methylthiazol-5-yl)methyleneamino]-1,1-dioxo-1,2-benzothiazol-3-amine] gave a melting point of 248 °C.
The compound `COc1cc(/C=N/N(CC(C)(C)CO)C2=NS(=O)(=O)c3ccccc32)ccc1F` [Ex 108, 3-[(1,1-dioxo-1,2-benzothiazol-3-yl)-[(E)-(4-fluoro-3-methoxy-phenyl)methyleneamino]amino]-2,2-dimethyl-propan-1-ol] displayed a melting point of 207 to 208 °C.
Turning to `CNC(=O)Cc1ccc(/C=N/N(C)C2=NS(=O)(=O)c3ccccc32)cc1OC` [Ex 20, 2-[4-[(E)-[(1,1-dioxo-1,2-benzothiazol-3-yl)-methyl-hydrazono]methyl]-2-methoxy-phenyl]-N-methyl-acetamide], the melting point is 228 to 231 °C.
As for `CN(/N=C/c1ccc(F)c(OC(F)(F)F)c1)C1=NS(=O)(=O)c2ccccc21` [Ex 78, N-[(E)-[4-fluoro-3-(trifluoromethoxy)phenyl]methyleneamino]-N-methyl-1,1-dioxo-1,2-benzothiazol-3-amine], the melting point fell in the range of 230 to 280 °C.
The same measure, in the same setting: to `CN(/N=C/c1ccc2c(c1)C(C)(C)C(=O)N2)C1=NS(=O)(=O)c2ccccc21` [Ex 33, 5-[(E)-[(1,1-dioxo-1,2-benzothiazol-3-yl)-methyl-hydrazono]methyl]-3,3-dimethyl-indolin-2-one] belongs > 300 °C; to `CN(/N=C/c1cnc(N2CCC2)s1)C1=NS(=O)(=O)c2ccccc21` [Ex 61, N-[(E)-[2-(azetidin-1-yl)thiazol-5-yl]methyleneamino]-N-methyl-1,1-dioxo-1,2-benzothiazol-3-amine], 256 to 258 °C.
For the compound `CC1NC(=O)c2ccc(/C=N/N(C)C3=NS(=O)(=O)c4ccccc43)cc21` (stereo not shown) [Ex 31, 5-[(E)-[(1,1-dioxo-1,2-benzothiazol-3-yl)-methyl-hydrazono]methyl]-3-methyl-isoindolin-1-one], the melting point is > 298 °C.
Same read-out and setting: with `CN(/N=C/c1ccc2c(c1)C(C)(C)NC2=O)C1=NS(=O)(=O)c2ccccc21` [Ex 32, 5-[(E)-[(1,1-dioxo-1,2-benzothiazol-3-yl)-methyl-hydrazono]methyl]-3,3-dimethyl-isoindolin-1-one] the figure was > 295 °C.
On the same count and under the same terms, to `CN(/N=C/c1cnc(N2CCOCC2)s1)C1=NS(=O)(=O)c2ccccc21` [Ex 7, N-methyl-N-[(E)-(2-morpholinothiazol-5-yl)methyleneamino]-1,1-dioxo-1,2-benzothiazol-3-amine] belongs 281 to 300 °C.
Regarding `COc1cc(/C=N/N(CCc2ccccc2)C2=NS(=O)(=O)c3ccccc32)ccc1F` [Ex 46, N-[(E)-(4-fluoro-3-methoxy-phenyl)methyleneamino]-1,1-dioxo-N-(2-phenylethyl)-1,2-benzothiazol-3-amine], the melting point fell in the range of 256 to 258 °C.
The same measure, in the same setting: with `CN(/N=C/c1ccc(N2CCOCC2)cc1)C1=NS(=O)(=O)c2ccccc21` [Ex 3, N-methyl-N-[(E)-(4-morpholinophenyl)methyleneamino]-1,1-dioxo-1,2-benzothiazol-3-amine] the figure was 258 to 261 °C.

The IC50 is the midpoint of a concentration-inhibition curve. High values mean weaker potency in that assay, low ones greater potency in that assay. As usually defined, the melting point is the temperature of the solid-liquid transition.
